“Also recorded” adds a separate entry of the source. Like-named read-outs stand apart in the source and are kept apart here.
What was measured:
[1] = test system: other PAK kinases; test: Kinase profiling panel: other PAK kinases (summary statement); assay type: biochemical; settings: 5 μM compound
Experimental: (§1) To further probe the selectivity of the compounds 4 and 15, they were subjected for kinase profiling service for screening against a panel of other kinases selected based on the kinase tree at 5 μM concentration, at or above the IC50 for the two compounds versus PAK in both in vitro and cell-based assays. […] PAK1 was not available for testing using this system thus it was not possible to compare directly in this assay system.

[2] = target: CDK5/p25 (Homo sapiens, UniProt Q00535); test: Kinase profiling panel: CDK5/p25; assay type: biochemical; settings: 5 μM compound; average of triplicate
Experimental: as §1

[3] = target: PKBβ (Homo sapiens, UniProt P31751); test: Kinase profiling panel: PKBβ; assay type: biochemical; settings: read-out: % activity vs. DMSO, PKBβ
Experimental: as §1

[4] = test system: S6 phosphorylation; test: Western blot, S6 phosphorylation in thyroid cancer cells; assay type: cell-based, Human; settings: for S6 phosphorylation, BCPAP and TPC1 cells: BCPAP and TPC1 cells (FIG. 4B)
Experimental: (§2) Protein isolation and Western blot were performed as previously described. Ringel et al., Cancer research 61:6105-6111 (2001). 25 μg of total cell lysates were loaded into 4-12% SDS-PAGE, electrophoresed, and transferred to nitrocellulose membranes for immunoblotting. Primary antibodies against Akt (#9272), phospho-Akt (Thr308) (#2965), p44/42 MAPK (Erk1/2) (#9107), phospho-p44/42 MAPK (Erk1/2) (Thr202/Tyr204) (#4377) and GAPDH (#2118) were obtained from Cell Signaling Technology (Danvers, Mass., USA). Antibody against Vimentin (V6630) and phospho-Ser55 Vimentin were from Sigma-Aldrich, Inc. (St. Louis, Mo.) and MBL Co. (Nagoya, Japan), respectively. Antibodies against total and phosphorylated S6 were from Cell Signaling Technology®.
(§3) The dose-dependency of compounds 4 and 15 was next assessed (FIG. 4). […] Due to the important role that ERK activation plays in thyroid cancer, and its signaling activation by thyroid oncogenes, the effects of the compounds on ERK phosphorylation was also assessed.

[5] = target: T1, Recombinant active PAK 1 (Homo sapiens, UniProt Q13153); test: In vitro PAK1 kinase assay (MBP substrate, 32P-ATP); assay type: biochemical; settings: for Inhibition of PAK1 kinase activity in initial screen: 7.5 μM inhibitor, 2.5 μM ATP, myelin basic protein substrate (FIG. 2A); for ATP competition for PAK1: ATP 5-40 μM, Lineweaver-Burk analysis (FIG. 2C); for Relative PAK1 inhibitory potency (comparison in words) / IC50: in vitro kinase assay; for Relative PAK1 inhibitory potency (comparison in words): comparison between compounds / with OSU-03012; for IC50: read-out: IC50 versus PAK, in vitro (bound implied by chosen test concentration)
T1 construct: purchased Calbiochem
Experimental: Recombinant active PAK 1 (Calbiochem) was incubated with selected derivatives or 0.1% DMSO in the presence or absence of MBP (Sigma) in a 1× kinase buffer (Cell Signaling). The addition of [γ-32P]-ATP (2.5 μCi/reaction) (Perkin Elmer) started the reaction, which was incubated at 30° C. for 30 minutes. The reaction was terminated by the addition of EDTA. Results were obtained after visualization of ^32P-labeled MBP after separation on 12% polyacrylamide gels and autoradiography. For the Lineweaver-Burk plot analysis, the ratio of radioactive ATP to nonradioactive ATP was not altered. The PAK1 kinase activities are the means of three independent experiments quantified using P81 phosphocellulose paper by a scintillation counter after three washes with 0.75% phosphoric acid.
Screening of OSU-03012 Derivatives to Identify PAK1 Inhibitors. The 17 derivatives along with OSU-03012, each at 7.5 μM, were screened for their ability to inhibit PAK1 activity by in vitro PAK1 kinase assay. The dose was chosen (above the IC50 of OSU-03012) to allow OSU-03012 to serve as a robust positive control. The PAK1 kinase assay was performed using recombinant active PAK1 with myelin basic protein as substrate in the presence of 2.5 μM ATP and 7.5 μM of respective inhibitors.
To further investigate these six compounds, dose-response studies on PAK1 activity were performed by using PAK1 kinase assay. […] We next questioned whether compounds 4 or 15 inhibited PAK1 in an ATP competitive manner as their parent compound OSU-03012.

[6] = target: CaMKI (Homo sapiens, UniProt Q14012); test: Kinase profiling panel: CaMKI; assay type: biochemical; settings: 5 μM compound; average of triplicate
Experimental: as §1

[7] = test system: PDK1 phosphorylation of Akt (Thr308); test: Western blot, PDK1 phosphorylation of Akt (Thr308) in thyroid cancer cells; assay type: cell-based, Human; settings: BCPAP; for PDK1 phosphorylation of Akt (Thr308) (Western blot): 7.5 μM, 6 h, FTC133 and TPC1 cells (FIG. 3); for Dose-dependency of PDK-mediated Akt phosphorylation: dose-response, 6 hours, FTC133 and TPC1 cells (FIG. 4A)
Experimental: as §2
The ability of the compounds with in vitro anti-PAK1 activity was assessed for activity […] in thyroid cancer cells. In addition, because the compounds are based on the structure of a PDK1 inhibitor, PDK1 inhibitory activity was also assessed. Inhibitory activity in cells was estimated using Western blot with primary antibodies directed against kinase-specific phosphorylation sites; serine 56 of vimentin for PAK and threonine 308 of Akt for PDK1. BCPAP, TPC1, and FTC133 thyroid cancer cells were utilized. BCPAP and TPC1 are derived from PTC and have BRAF V600E and RET/PTC1 rearrangements, respectively. FTC133 is derived from a follicular thyroid cancer with an inactivating mutation of PTEN. Similar to the kinase screening assay, cells were treated with the six compounds or OSU-03012 at 7.5 μM concentration or with DMSO vehicle alone. The results were not entirely consistent across the three cell lines presumably related to mutation status or other factors. OSU-03012 inhibited both PDK1 and PAK-mediated phosphorylation of targets as predicted.
as §3

[8] = target: PAK3 (Homo sapiens, UniProt O75914); test: Kinase profiling panel: PAK3; assay type: biochemical; settings: 5 μM compound; average of triplicate
Experimental: as §1

[9] = target: GSK3α (Homo sapiens, UniProt P49840); test: Kinase profiling panel: GSK3α; assay type: biochemical; settings: 5 μM compound; average of triplicate
Experimental: as §1

[10] = target: PKBα (Homo sapiens, UniProt P31749); test: Kinase profiling panel: PKBα; assay type: biochemical; settings: read-out: % activity vs. DMSO, PKBα
Experimental: as §1

[11] = target: Src(T341M) (Homo sapiens, UniProt P12931, T341M); test: Kinase profiling panel: Src(T341M); assay type: biochemical; settings: 5 μM compound; average of triplicate
Experimental: as §1

[12] = target: MEK1 (Homo sapiens, UniProt Q02750); test: Kinase profiling panel: MEK1; assay type: biochemical; settings: 5 μM compound; average of triplicate
Experimental: as §1

[13] = target: FAK (Homo sapiens, UniProt Q05397); test: Kinase profiling panel: FAK; assay type: biochemical; settings: 5 μM compound; average of triplicate
Experimental: as §1

[14] = target: PAK6 (Homo sapiens, UniProt Q9NQU5); test: Kinase profiling panel: PAK6; assay type: biochemical; settings: 5 μM compound; average of triplicate
Experimental: as §1

[15] = target: CDK1/cyclinB (Homo sapiens, UniProt P06493); test: Kinase profiling panel: CDK1/cyclinB; assay type: biochemical; settings: 5 μM compound; average of triplicate
Experimental: as §1

[16] = target: C-RAF (Homo sapiens, UniProt P04049); test: Kinase profiling panel: C-RAF; assay type: biochemical; settings: 5 μM compound; average of triplicate
Experimental: as §1

[17] = test system: ERK phosphorylation; test: Western blot, ERK phosphorylation in thyroid cancer cells; assay type: cell-based, Human; settings: 6 hours
Experimental: as §2, §3

[18] = 5 μM compound, average of triplicate

T1 sequence (Q13153 whole entry): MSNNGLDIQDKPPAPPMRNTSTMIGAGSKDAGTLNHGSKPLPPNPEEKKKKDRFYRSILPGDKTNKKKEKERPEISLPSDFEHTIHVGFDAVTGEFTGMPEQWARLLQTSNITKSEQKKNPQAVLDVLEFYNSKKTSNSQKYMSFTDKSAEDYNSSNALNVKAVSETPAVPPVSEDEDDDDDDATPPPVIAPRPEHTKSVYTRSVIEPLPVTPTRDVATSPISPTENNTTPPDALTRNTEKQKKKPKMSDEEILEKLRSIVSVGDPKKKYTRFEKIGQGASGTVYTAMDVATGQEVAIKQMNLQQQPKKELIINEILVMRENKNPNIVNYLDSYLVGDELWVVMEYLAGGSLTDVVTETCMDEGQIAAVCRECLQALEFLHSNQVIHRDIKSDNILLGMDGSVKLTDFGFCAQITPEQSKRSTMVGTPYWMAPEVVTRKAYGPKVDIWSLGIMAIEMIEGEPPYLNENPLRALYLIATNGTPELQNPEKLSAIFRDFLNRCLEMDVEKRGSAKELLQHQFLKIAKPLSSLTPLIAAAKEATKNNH
MEK1, sequence (Q02750 whole entry, species assumed): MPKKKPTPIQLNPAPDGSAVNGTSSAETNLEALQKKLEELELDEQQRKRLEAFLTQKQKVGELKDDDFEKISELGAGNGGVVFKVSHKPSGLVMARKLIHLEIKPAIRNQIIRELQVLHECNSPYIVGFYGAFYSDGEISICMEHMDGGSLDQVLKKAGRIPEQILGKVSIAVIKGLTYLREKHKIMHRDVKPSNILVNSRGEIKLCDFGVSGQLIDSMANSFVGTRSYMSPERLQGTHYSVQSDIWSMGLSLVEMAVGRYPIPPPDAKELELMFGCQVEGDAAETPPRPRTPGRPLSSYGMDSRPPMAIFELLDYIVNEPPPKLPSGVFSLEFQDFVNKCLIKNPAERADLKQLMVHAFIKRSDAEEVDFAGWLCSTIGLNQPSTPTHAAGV
PAK3, sequence (O75914 whole entry, species assumed): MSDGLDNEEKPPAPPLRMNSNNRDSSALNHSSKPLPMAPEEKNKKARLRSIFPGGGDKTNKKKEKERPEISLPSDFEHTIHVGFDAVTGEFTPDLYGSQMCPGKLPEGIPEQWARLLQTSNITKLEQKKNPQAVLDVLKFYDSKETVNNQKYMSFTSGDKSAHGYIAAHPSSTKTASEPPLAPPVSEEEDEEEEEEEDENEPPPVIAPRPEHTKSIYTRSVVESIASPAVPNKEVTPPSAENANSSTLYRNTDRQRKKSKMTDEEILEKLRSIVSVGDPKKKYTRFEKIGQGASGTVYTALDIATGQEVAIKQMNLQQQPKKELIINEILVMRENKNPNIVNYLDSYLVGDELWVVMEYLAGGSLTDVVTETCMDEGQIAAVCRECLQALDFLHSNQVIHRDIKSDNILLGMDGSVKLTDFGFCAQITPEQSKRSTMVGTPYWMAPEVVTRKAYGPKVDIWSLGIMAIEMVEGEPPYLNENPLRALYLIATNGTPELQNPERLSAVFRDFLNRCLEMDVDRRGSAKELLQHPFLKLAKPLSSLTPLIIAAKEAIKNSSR
PKBβ, sequence (P31751 whole entry, species assumed): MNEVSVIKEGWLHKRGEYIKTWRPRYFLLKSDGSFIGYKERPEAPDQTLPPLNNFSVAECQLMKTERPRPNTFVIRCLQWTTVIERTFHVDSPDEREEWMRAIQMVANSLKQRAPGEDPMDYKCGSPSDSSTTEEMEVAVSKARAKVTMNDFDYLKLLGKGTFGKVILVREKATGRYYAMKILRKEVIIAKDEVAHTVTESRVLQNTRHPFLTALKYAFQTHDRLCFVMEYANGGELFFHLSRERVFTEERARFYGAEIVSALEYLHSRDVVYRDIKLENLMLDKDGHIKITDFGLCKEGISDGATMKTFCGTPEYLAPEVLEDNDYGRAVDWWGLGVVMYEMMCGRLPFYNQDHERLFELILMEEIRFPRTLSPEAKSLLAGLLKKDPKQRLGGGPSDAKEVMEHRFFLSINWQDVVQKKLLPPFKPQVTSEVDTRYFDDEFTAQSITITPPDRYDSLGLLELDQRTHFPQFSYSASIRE
CDK1/cyclinB, sequence (P06493 whole entry, species assumed): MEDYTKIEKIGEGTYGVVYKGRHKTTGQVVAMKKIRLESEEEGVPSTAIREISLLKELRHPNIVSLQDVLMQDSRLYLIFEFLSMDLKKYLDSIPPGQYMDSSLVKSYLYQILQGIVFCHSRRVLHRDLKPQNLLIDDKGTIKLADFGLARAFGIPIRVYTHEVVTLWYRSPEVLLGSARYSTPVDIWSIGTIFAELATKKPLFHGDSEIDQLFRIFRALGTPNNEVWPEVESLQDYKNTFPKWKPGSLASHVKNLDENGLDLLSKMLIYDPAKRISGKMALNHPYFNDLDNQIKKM
CDK1/cyclinB, sequence (P14635 whole entry partner, species assumed): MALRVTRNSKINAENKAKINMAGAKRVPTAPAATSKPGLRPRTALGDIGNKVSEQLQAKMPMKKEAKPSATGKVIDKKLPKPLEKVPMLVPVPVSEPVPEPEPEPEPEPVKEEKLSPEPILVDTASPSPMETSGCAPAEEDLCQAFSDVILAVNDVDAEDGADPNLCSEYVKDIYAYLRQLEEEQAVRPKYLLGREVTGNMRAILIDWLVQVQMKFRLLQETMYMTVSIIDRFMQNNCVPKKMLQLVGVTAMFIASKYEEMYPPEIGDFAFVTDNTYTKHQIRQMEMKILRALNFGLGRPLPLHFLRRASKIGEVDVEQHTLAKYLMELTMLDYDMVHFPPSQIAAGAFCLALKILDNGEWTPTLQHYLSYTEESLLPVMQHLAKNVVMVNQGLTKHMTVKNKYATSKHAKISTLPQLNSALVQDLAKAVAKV
GSK3α, sequence (P49840 whole entry, species assumed): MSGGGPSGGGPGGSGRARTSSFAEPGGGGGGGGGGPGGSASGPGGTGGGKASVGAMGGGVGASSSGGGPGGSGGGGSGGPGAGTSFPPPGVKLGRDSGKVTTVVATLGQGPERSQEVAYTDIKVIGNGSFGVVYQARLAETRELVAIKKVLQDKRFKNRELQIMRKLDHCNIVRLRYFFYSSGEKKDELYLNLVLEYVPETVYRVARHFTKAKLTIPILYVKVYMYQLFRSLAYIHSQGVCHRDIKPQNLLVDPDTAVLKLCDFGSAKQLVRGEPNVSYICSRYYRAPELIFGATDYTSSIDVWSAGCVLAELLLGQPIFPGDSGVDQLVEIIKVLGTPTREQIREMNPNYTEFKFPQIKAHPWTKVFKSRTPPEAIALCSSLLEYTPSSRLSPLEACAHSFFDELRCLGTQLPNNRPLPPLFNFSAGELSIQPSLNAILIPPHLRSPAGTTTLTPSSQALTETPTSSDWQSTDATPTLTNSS
C-RAF, sequence (P04049 whole entry, species assumed): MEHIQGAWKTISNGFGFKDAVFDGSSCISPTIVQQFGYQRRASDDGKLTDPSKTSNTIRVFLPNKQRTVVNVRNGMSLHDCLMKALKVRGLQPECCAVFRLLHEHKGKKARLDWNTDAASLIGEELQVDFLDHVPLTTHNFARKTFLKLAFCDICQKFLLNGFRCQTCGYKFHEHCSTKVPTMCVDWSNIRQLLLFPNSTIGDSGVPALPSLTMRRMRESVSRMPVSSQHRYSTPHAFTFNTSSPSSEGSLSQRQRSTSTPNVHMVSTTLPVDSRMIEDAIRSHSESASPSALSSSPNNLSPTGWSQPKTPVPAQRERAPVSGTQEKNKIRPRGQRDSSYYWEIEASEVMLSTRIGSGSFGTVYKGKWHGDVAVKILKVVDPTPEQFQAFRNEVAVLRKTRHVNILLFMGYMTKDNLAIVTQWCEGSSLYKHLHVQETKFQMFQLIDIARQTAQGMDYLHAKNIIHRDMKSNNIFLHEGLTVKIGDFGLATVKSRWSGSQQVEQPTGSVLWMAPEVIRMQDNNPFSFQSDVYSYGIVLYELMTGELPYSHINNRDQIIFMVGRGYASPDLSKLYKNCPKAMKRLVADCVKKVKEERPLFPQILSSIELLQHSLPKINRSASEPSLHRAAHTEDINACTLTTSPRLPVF
FAK, sequence (Q05397 whole entry, species assumed): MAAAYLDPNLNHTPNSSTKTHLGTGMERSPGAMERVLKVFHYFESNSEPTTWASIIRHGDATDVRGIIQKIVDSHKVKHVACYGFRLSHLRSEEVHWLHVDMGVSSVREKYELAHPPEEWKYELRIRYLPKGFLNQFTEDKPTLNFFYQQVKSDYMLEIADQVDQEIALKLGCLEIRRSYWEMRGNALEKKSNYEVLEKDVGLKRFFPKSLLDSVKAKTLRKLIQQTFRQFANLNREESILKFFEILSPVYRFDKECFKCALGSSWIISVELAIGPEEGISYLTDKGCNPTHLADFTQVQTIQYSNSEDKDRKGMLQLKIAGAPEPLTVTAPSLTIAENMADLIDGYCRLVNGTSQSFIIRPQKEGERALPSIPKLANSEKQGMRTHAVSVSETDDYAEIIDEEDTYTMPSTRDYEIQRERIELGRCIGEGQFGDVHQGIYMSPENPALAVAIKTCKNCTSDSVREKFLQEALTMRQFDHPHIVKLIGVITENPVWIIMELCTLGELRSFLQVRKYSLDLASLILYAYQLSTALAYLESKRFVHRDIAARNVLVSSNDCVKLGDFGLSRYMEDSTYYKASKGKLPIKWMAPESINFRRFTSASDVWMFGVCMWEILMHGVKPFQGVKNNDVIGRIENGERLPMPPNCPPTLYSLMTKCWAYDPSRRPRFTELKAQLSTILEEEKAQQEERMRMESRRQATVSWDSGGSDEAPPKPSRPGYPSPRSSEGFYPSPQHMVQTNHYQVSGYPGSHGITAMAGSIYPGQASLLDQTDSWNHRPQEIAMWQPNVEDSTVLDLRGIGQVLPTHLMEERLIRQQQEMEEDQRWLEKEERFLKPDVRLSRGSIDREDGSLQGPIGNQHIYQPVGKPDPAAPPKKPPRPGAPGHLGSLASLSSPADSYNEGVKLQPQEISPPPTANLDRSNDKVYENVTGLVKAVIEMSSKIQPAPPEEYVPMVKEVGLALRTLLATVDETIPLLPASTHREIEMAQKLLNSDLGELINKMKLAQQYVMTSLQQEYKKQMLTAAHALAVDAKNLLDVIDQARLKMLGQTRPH

| Structure (SMILES) | Activity versus other PAK kinases [1] | % activity vs. DMSO, CDK5/p25 [2] [%] | S6 phosphorylation, BCPAP and TPC1 cells [4] | Inhibition of PAK1 kinase activity in initial screen [5] | ATP competition for PAK1 [5] | Relative PAK1 inhibitory potency (comparison in words) [5] | IC50 [5] [µM] | % activity vs. DMSO, CaMKI [6] [%] | PDK1 phosphorylation of Akt (Thr308) (Western blot) [7] | Dose-dependency of PDK-mediated Akt phosphorylation [7] | % activity vs. DMSO, PAK3 [8] [%] | % activity vs. DMSO, GSK3α [9] [%] | % activity vs. DMSO, Src(T341M) [11] [%] | % activity vs. DMSO, MEK1 [12] [%] | % activity vs. DMSO, FAK [13] [%] | % activity vs. DMSO, PAK6 [14] [%] | % activity vs. DMSO, CDK1/cyclinB [15] [%] | % activity vs. DMSO, C-RAF [16] [%] | other results |
| --- | --- | --- | --- | --- | --- | --- | --- | --- | --- | --- | --- | --- | --- | --- | --- | --- | --- | --- | --- |
| NCCC(=O)Nc1ccc(-n2nc(C(F)(F)F)cc2-c2ccc3ccc4ccccc4c3c2)cc1 [Compound 4, 3-amino-N-(4-(5-(phenanthren-3-yl)-3-(trifluoromethyl)-1H-pyrazol-1-yl)phenyl)-propanamide] | did not have activity versus other PAK kinases | 113 | inhibited this phosphorylation | inhibited PAK1 kinase activity | competed with ATP binding to PAK1 | comparable PAK1 inhibitory activity to OSU-03012; also recorded: more potent than the other compounds | ≤ 5 | 65 | without altering PDK1 activity; also recorded: did not block PDK1-mediated Akt phosphorylation | not reduced | 211 | 133 | 105 | 106 | 87 | 81 | 83 | 104 | remaining activity at 5 µM [3, 18]: 76%; remaining activity at 5 µM [10, 18]: 103%; ERK phosphorylation, all three cell lines ([17]; dose-response, BCPAP, FTC133 and TPC1 cells): no demonstrable effects on ERK phosphorylation |
| CC(C)NC(=O)c1cc(-c2ccc3ccc4ccccc4c3c2)n(-c2ccc(NC(=O)CN)cc2)n1 [Compound 15, 1-(4-(2-Aminoacetamido)phenyl)-N-isopropyl-5-(phenanthren-3-yl)-1H-pyrazole-3-carboxamide] | did not have activity versus other PAK kinases | 93 | inhibited 56 phosphorylation | inhibited PAK1 kinase activity | competed with ATP binding to PAK1 | relative enhancement in activity; also recorded: comparable PAK1 inhibitory activity to OSU-03012; also recorded: more potent than the other compounds | ≤ 5 | 68 | without altering PDK1 activity; also recorded: did not block PDK1-mediated Akt phosphorylation | not reduced | 99 | 118 | 94 | 101 | 96 | 101 | 95 | 108 | remaining activity at 5 µM [3]: 84%; S6 phosphorylation, FTC133 cells ([4]; FTC133 cells (FIG. 4B)): inhibited 56 phosphorylation; remaining activity at 5 µM [10]: 99%; ERK phosphorylation, BCPAP cells ([17]; 2.5 μM, BCPAP cells (BRAF V600E)): inhibited ERK phosphorylation; ERK phosphorylation, other two cell lines ([17]; FTC133 and TPC1 cells): at higher concentrations |
